Usually pEC50 stands for the negative decadic logarithm of the EC50, by convention in mol/L. Read a high pEC50 as a low EC50.

pEC50: −log10 of the molar value.

For one assay, the target named is human CB1 receptors (Homo sapiens (Human), UniProt P21554). Description: functional cAMP assay, CB1. Type of assay: cell-based. Conditions: CHO cells expressing human CB1. For orientation: Cyclic AMP is a second messenger, typically raised through Gs and lowered through Gi signalling.
The target of another assay is human CB2 receptors (Homo sapiens (Human), UniProt P34972). Description: functional cAMP assay, CB2. The assay is classed as cell-based. Conditions: CHO cells expressing human CB2.
Chain of human CB2 receptors (P34972 whole entry): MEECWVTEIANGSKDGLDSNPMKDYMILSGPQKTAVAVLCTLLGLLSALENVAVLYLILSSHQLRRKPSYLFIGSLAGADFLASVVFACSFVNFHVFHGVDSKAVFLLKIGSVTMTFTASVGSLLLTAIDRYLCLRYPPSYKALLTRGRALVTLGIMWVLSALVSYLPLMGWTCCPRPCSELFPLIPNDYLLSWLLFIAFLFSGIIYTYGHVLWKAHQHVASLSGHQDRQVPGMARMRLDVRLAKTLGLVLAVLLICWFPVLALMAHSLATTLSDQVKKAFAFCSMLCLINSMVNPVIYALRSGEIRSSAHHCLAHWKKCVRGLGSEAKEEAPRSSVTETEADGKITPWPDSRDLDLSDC

Chain of human CB1 receptors (P21554 whole entry): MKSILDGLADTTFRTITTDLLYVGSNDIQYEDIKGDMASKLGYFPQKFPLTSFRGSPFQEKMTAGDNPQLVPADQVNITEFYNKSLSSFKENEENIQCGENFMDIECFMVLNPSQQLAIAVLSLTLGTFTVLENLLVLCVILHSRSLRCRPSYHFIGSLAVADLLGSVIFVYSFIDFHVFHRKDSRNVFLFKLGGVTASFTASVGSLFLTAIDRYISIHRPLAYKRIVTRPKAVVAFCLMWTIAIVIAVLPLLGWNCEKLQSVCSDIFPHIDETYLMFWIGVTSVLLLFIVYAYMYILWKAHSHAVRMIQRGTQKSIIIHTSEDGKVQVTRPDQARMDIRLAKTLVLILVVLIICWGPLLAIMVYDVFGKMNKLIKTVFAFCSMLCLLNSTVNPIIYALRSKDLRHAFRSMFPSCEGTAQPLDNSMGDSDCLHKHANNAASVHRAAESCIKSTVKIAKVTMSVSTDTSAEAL

For `COCCn1cnc2c(N3CC[C@H](O)C3)nc(C(C)(C)C)nc21` [Example 94, (3S)-1-[2-tert-butyl-9-(2-methoxyethyl)purin-6-yl]pyrrolidin-3-ol], the results for the pEC50 at human CB1 receptors and on human CB2 receptors were less than 5.00 and 6.36, respectively.
For `CC(C)(C)c1nc(N2CCC3(COC3)C2)c2ncn(Cc3ccccc3C(F)(F)F)c2n1` [Example 59, 7-[2-tert-butyl-9-[[2-(trifluoromethyl)phenyl]methyl]purin-6-yl]-2-oxa-7-azaspiro[3.4]octane], the figures for the pEC50 on human CB1 receptors and on human CB2 receptors were less than 5.00 and 7.78, respectively.
As to `CC(C)(C)c1nc(N2CCC(F)(F)C2)c2ncn(CCc3cccnc3)c2n1` [Example 23, 2-tert-butyl-6-(3,3-difluoropyrrolidin-1-yl)-9-(2-pyridin-3-ylethyl)purine], the values for the pEC50 on human CB1 receptors and at human CB2 receptors were less than 5.00 and 8.36, respectively.
Consider `CC(C)(C)Nc1nc(N2CC[C@H](O)C2)c2ncn(Cc3ccccc3C(F)(F)F)c2n1` [Example 117, (3S)-1-[2-(tert-butylamino)-9-[[2-(trifluoromethyl)phenyl]methyl]purin-6-yl]pyrrolidin-3-ol], for which the pEC50 is less than 5.00 at human CB1 receptors and 8.14 at human CB2 receptors.
For the compound `CC(C)(C)c1nc(N2CC[C@H](O)[C@H]2CO)c2ncn(Cc3ncccc3Cl)c2n1` [Example 159, (2R,3S)-1-[2-tert-butyl-9-[(3-chloropyridin-2-yl)methyl]purin-6-yl]-2-(hydroxymethyl)pyrrolidin-3-ol], the pEC50 on human CB1 receptors was less than 5.00; on human CB2 receptors it was 6.23.
As for `CC(C)(C)c1nc(N2CCC3(COC3)C2)c2ncn(Cc3cccc(Cl)c3)c2n1` [Example 57, 7-[2-tert-butyl-9-[(3-chlorophenyl)methyl]purin-6-yl]-2-oxa-7-azaspiro[3.4]octane], the pEC50 on human CB1 receptors is less than 5.00; on human CB2 receptors, 6.33.
Consider `CC(C)(C)c1nc(N2CCC(O)C2)c2ncn(Cc3ncccc3Cl)c2n1` (centres unmarked) [Example 32, 1-[2-tert-butyl-9-[(3-chloropyridin-2-yl)methyl]purin-6-yl]pyrrolidin-3-ol], for which the pEC50 on human CB1 receptors was less than 5.00; at human CB2 receptors it was 8.47.
Turning to `CC(C)(C)c1nc(N2CCSC2)c2ncn(Cc3ncccc3Cl)c2n1` [Example 161, 3-[2-tert-butyl-9-[(3-chloropyridin-2-yl)methyl]purin-6-yl]-1,3-thiazolidine], the pEC50 at human CB1 receptors was less than 5.00; at human CB2 receptors, 7.90.
On to `CC(C)(C)c1nc(N2CCC[C@@H]2C#N)c2ncn(Cc3ncccc3Cl)c2n1` [Example 163, (2R)-1-[2-tert-Butyl-9-[(3-chloropyridin-2-yl)methyl]purin-6-yl]pyrrolidine-2-carbonitrile], for which the pEC50 on human CB1 receptors is less than 5.00; on human CB2 receptors it was 8.16.
Turning to `CC(C)(C)Nc1nc(N2CCC(F)(F)C2)c2ncn(Cc3ccccc3S(C)(=O)=O)c2n1` [Example 114, N-tert-butyl-6-(3,3-difluoropyrrolidin-1-yl)-9-[(2-methylsulfonylphenyl)methyl]purin-2-amine], the pEC50 on human CB1 receptors is less than 5.00; on human CB2 receptors it was 7.34.
With `CC(C)(C)c1nc(N2CCC(O)C2)c2ncn(CCC(F)(F)F)c2n1` (centres unmarked) [Example 45, 1-[2-tert-butyl-9-(3,3,3-trifluoropropyl)purin-6-yl]pyrrolidin-3-ol], the pEC50 at human CB1 receptors is less than 5.00; on human CB2 receptors, 7.30.
For the compound `COCCn1cnc2c(N3CCC4(COC4)C3)nc(C(C)(C)C)nc21` [Example 63, 7-[2-tert-butyl-9-(2-methoxyethyl)purin-6-yl]-2-oxa-7-azaspiro[3.4]octane], the values for the negative logarithm of the EC50 (pEC50) on human CB1 receptors and on human CB2 receptors were less than 5.00 and 6.18, respectively.
On to `CC(C)(C)c1nc(N2CC(F)(F)C(F)(F)C2)c2ncn(CCC(F)(F)F)c2n1` [Example 93, 2-tert-butyl-6-(3,3,4,4-tetrafluoropyrrolidin-1-yl)-9-(3,3,3-trifluoropropyl)purine], for which the pEC50 at human CB1 receptors was less than 5.00; on human CB2 receptors it was 7.05.

The record behind these values is patent US9505762B2, “Purine derivatives as CB2 receptor agonists” (Hoffmann-La Roche Inc., priority 2013, dated 2016).
